From article PMC6944758 (The FEBS journal, 2019)

Tests used:
ALDH7A1 [1] = biological target: T1, ALDH7A1 (Homo sapiens, UniProt P49419); assay: X-ray crystal structure, co-crystallization; assay type: binding; conditions: 15 mM NAD+, pH 6.8, 1.85 Å; Rossmann fold cofactor site
T1 sequence (P49419 1-511 isoform P49419-2): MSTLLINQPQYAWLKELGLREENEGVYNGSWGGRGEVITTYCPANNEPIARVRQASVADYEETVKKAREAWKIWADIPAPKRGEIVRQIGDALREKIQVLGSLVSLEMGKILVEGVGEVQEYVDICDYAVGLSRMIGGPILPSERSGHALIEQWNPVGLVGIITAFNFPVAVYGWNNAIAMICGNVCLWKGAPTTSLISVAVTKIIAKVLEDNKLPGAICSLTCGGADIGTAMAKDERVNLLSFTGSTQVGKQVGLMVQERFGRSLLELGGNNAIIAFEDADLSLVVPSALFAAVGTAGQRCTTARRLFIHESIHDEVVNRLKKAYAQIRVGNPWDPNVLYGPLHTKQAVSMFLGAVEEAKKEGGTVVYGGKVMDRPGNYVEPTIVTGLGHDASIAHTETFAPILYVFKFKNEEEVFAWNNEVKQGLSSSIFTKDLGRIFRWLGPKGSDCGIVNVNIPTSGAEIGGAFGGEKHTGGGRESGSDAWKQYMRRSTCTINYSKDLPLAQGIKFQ

ALDH7A1 [2] = biological target: T1, ALDH7A1; assay: X-ray crystal structure, co-crystallization; assay type: binding; conditions: 175 mM PA, pH 7.2, 1.88 Å; aldehyde substrate site

SMILES | X-ray crystal structure, co-crystallization (ALDH7A1 [1]) | X-ray crystal structure, co-crystallization (ALDH7A1 [2])
NC(=O)c1ccc[n+]([C@@H]2O[C@H](COP(=O)(O)OP(=O)(O)OC[C@H]3O[C@@H](n4cnc5c(N)ncnc54)[C@H](O)[C@@H]3O)[C@@H](O)[C@H]2O)c1 [NAD^+] | The structures of W175G and W175A complexed with NAD^+ were determined | 
O=C(O)[C@@H]1CCCCN1 [PA, L-pipecolic acid] |  | we obtained a structure of W175A complexed with the P6C analog L-pipecolic acid (PA)
